The text below walks through data of patent US6787569B1, “Therapeutic guanidines” (Cambridge NeuroScience, Inc., priority 1994, dated 2004).

Each structure is given as a SMILES string. Structures can show the parent of a compound that is named as a salt. Where two headings read alike, the source gives them in different places.

Data set [1] concerns L-type Ca channels. The data set is described as follows: Inhibition of 45Ca uptake through L-type (dihydropyridine-sensitive) calcium channels in GH4C1 pituitary cells. Format: cell-based. The procedure:
Compounds of the invention representative of each of the major classes of agents claimed herein were tested to determine their ability to inhibit voltage-activated, dihydropyridine-sensitive L-type calcium channels in clonal GH4C1 pituitary cells. Said voltage-activated L-type calcium channels are found in cardiac muscle, vascular smooth muscle, and the cardiac Purkije cell conduction system. They are the sites of action of the major classes of Ca antagonists employed to treat hypertension, angina, cardiac arrhythmias, and related disorders. L-type Ca channels are also the sites of action of certain neuroprotective dihydropyridine Ca antagonists such as nimodipine.
The uptake of ^45Ca into GH4C1 cells was performed by an adaptation of the method of Tan, K. et al. (J. Biol. Chem., 259:418-426 (1984)). The principle of the method involves activating ion permeation through synaptosomal calcium channels by high K^+-induced depolarization of the synaptosomal preparation. The uptake of ^45Ca measured by this procedure is mediated by presynaptic L-type calcium channels, and is sensitive to dihydropyridine, phenylalkylamine, and benzothiazipine Ca antagonists at therapeutically relevant concentrations [Tashjian et al., ibid.]. The adaptation of the aforementioned method involves growing GH4C1 cells in 96-well culture plates, and is designed to provide a rapid and quantitative determination of the potency of various compounds in inhibiting ^45Ca uptake through L-type Ca channels.
GH4 cells, stored in liquid nitrogen, are suspended in 15 ml growth medium (Ham's F-10 medium plus 15% heat-inactivated horse serum and 2.5% heat-inactivated fetal bovine serum). The cells are centrifuged, resuspended, and then added to T-75 flasks containing 12-15 mls Growth Medium, and incubated at 37° C. for approximately 1 week. The cells are them removed from the T75 flask after dissociation from the walls of the flask by treatment for 5 minutes at 37° C. with 1 mg/ml Viocase. The Viocase is decanted, and the cells are resuspended in ˜200 ml of Growth Medium. The cells are then aliquoted (200 μl/well) into each well of several 96 well plates. The cells are then grown under the aforementioned conditions for 3-4 weeks, with replacement of Growth Medium occurring twice per week. Cells are fed growth medium 24 hours before they are employed for ^45Ca uptake determinations.
At the time of the assay, media Is aspirated from each 96-well plate using a manifold designed to allow 50 μL of liquid to remain in each well. Each plate is washed and aspirated twice with a low K^+ buffer solution “LKHBBS” (in mM 5 KCl, 145 NaCl, 10 Hepes, 1 MgCl2, […], 10 glucose, pH 7.4), 200 μl/well. Each plate is incubated for 10 minutes at 37° C., and aspirated as above. To each well of each plate, 50 μl of HBBS containing the drug to be tested in twice the final concentration is added. The plates are incubated for 10 minutes at room temperature. To each well of each plate, 50 μl of either of two solutions are added:
(a) LKHBBS containing 1 μCi of carrier-free ^45Ca, or
(b) HKHBBS (a high K^+ buffer containing 150 mM KCl and no NaCl, but otherwise identical to LKHBBS).
Each plate is then incubated for 5 minutes at room temperature, aspirated as above, and quenched with 200 μl/well of Quench Buffer (Ca-free LKHBBS containing 10 mM Tris-EGTA). Each plate is aspirated and rinsed with Quench Buffer a second time, then carefully aspirated to dryness. To each well of each plate 100 μl of High Safe II scintillation fluid is added. The plates are sealed, shaken, and subjected to scintillation spectrophotometry on a Microbeta 96-well Scintillation Counter (Wallac, Gaithersburg, Md., USA).
Net depolarization-induced ^45Ca uptake was determined for each concentration of each compound tested, as the difference between ^45Ca uptake in HKBBS and LK buffers. Results were plotted as % inhibition of depolarization-induced ^45Ca uptake vs. [compound] for each compound tested.

The subject of data set [2] is presynaptic Ca channels. The data set is described as follows: Inhibition of 45Ca uptake through presynaptic Ca channels in brain synaptosomes. Format: biochemical, mammalian. Conditions: high K+ depolarization-induced 45Ca uptake, read-out: IC50, block of ^45Ca uptake. The procedure:
Compounds of the invention were tested to determine their ability to inhibit voltage-activated calcium channels in nerve terminals of mammalian brain. Said voltage-activated calcium channels directly control neurotransmitter release (see Nachsen, D. A. et al., J. Gen Physiol., 79:1065-1087 (1982)). The uptake of ^45Ca into brain synaptosomes was performed by an adaptation of the method of Nachsen and Blaustein (J. Physiol., 361:251-258 (1985)), as previously described [Goldin et al., PCT/US92/01050]. The principle of the method involves opening ion permeation through synaptosomal calcium channels by high K^+-induced depolarization of the synaptosomal preparation. The rapid component of ^45Ca uptake measured by this procedure is mediated by presynaptic calcium channels.
Briefly, synaptosomes are prepared by the method of Hajos (Brain Res., 93:485-489 (1975)). Freshly prepared synaptosomes (8 μl) were suspended In low potassium “LK” buffer (containing 3 mM KCl). Test compounds in 8 μl LK were added to synaptosomes to final concentrations ranging from 0.3 μM to 100 μM, and the mixture was preincubated for 5 minutes at room temperature. ^45Ca uptake was then initiated by adding isotope in either LK or in buffer (“HK”) containing high [potassium] (150 mM KCl). After 5 seconds, the ^45Ca uptake was stopped by adding 0.9 ml quench buffer (LK+10 mM EGTA). This solution was then filtered under vacuum and the filters washed with 15 ml of quench buffer.
Washed filters were subjected to scintillation spectrophotometry to determine the extent of ^45Ca uptake. Net depolarization-induced ^45Ca uptake was determined for each concentration of each compound tested, as the difference between ^45Ca uptake in HK and LK buffers. Results were plotted as % inhibition of depolarization-induced ^45Ca uptake vs. [compound] for each compound tested. Representative IC50 for inhibition of depolarization-induced ^45Ca uptake are presented below in the tables (2a-2d) below which together are identified as Table 2.

For data set [3], the system named is veratridine-induced 3H-glutamate release from brain nerve terminals (voltage-activated presynaptic Na channels). The data set is described as follows: Inhibition of veratridine-induced 3H-glutamate release, rapid superfusion of synaptosomes. Format: biochemical, rat.
The target of data set [4] is Type II neuronal voltage-activated sodium channels (Rattus norvegicus, UniProt P04775). Nature of the data set: cell-based.
Data set [5] has as its system depolarization-induced 3H-glutamate release from brain nerve terminals. The data set is described as follows: Inhibition of 3H-glutamate release, high [K+] depolarization, rapid superfusion of synaptosomes. Format: biochemical. Conditions: rat brain synaptosomes; for % Inhibition of ^3H-Glu Rel @ 3 μM: 3 μM compound; for % Inhibition of ^3H-Glu Rel @ 1 μM: 1 μM compound.

The mark [6] stands for this setting: veratridine (100 μM)-induced, tetrodotoxin-sensitive uptake, CHO cells expressing rat brain Type II Na channels, read-out: IC50, block of ^14C guanidinium uptake.
The mark [7] stands for this setting: high K+ depolarization-induced 45Ca uptake, read-out: IC50, block of ^45Ca uptake.

Type II neuronal voltage-activated sodium channels, sequence (P04775 whole entry, the tested form may be a part): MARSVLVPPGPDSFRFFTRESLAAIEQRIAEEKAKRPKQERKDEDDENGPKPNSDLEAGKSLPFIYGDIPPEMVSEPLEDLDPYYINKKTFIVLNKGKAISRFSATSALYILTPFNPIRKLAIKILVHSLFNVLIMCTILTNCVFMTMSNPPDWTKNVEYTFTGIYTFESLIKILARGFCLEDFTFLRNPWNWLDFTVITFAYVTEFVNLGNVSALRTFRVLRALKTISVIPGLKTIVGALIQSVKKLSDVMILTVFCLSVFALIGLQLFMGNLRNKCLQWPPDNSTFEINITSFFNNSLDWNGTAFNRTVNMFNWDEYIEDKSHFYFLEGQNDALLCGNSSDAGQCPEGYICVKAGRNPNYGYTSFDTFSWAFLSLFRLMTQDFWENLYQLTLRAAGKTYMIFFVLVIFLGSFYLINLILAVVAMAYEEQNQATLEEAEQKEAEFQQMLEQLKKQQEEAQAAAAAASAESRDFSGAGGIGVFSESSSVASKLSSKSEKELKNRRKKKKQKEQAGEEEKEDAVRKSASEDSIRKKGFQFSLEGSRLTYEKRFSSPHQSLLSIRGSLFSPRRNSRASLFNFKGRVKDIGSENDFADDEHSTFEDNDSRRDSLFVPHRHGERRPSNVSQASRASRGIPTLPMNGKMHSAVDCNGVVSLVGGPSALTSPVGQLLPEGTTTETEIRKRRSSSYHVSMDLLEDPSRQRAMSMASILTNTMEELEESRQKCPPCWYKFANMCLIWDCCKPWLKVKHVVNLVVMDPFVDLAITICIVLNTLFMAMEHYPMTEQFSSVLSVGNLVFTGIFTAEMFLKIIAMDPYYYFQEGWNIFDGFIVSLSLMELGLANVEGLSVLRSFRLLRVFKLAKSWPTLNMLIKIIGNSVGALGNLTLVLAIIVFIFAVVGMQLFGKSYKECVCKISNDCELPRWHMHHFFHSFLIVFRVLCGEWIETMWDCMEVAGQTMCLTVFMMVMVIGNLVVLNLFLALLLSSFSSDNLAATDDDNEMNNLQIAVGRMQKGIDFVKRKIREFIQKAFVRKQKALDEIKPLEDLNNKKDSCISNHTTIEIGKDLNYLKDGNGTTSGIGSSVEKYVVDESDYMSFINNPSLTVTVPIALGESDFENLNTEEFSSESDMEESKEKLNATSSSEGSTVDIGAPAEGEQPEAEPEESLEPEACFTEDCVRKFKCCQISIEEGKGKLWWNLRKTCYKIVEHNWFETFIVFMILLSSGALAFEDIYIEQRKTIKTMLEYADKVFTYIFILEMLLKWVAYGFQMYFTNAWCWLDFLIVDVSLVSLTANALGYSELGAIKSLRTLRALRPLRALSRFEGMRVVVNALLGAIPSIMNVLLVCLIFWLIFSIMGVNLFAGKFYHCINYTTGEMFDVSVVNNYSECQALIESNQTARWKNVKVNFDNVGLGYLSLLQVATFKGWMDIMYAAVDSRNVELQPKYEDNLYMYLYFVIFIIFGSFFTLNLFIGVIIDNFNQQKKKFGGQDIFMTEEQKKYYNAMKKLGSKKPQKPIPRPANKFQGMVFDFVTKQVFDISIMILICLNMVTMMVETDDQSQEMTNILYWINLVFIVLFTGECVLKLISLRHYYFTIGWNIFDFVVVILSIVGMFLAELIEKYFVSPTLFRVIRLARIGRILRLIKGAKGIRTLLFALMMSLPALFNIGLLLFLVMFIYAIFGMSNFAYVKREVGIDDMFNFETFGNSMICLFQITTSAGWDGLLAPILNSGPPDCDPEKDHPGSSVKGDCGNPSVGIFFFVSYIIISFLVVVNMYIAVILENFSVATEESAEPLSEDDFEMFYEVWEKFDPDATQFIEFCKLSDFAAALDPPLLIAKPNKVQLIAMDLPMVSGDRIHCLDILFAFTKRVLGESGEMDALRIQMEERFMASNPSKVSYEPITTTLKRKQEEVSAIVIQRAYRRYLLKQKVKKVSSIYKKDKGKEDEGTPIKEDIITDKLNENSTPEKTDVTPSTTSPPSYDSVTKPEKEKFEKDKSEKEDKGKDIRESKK

As a reminder, the IC50 is the concentration that gives 50% inhibition. On to `COc1ccc([C@@H]2Sc3ccccc3N(CCN(C)C)C(=O)[C@@H]2OC(C)=O)cc1` [diltiazem, reference compound], for which, in data set [1] (read-out: IC50, block of ^45Ca uptake, high K+ depolarization-induced 45Ca uptake), the IC50 was found to be 19700 nM.
`Br.N=C(Nc1ccc2c3c(cccc13)-c1ccccc1-2)Nc1ccc2c3c(cccc13)-c1ccccc1-2` [Example 9, N-N′-Bis(3-fluoroanthenyl)guanidine hydrobromide]: the IC50 in data set [2] amounted to 7800 nM; in data set [4] (setting [6]), 700 nM. Also, in data set [3], the “% Inhibition of ^3H-Glu Rel @ 3 μM (*veratridine-induced glutamate release assay)” value is 17* %.
For `COc1ccc(NC(=N)Nc2ccc(Cl)c(Cl)c2Cl)c2ccccc12.Cl` [Example 15, N-(4-Methoxy-1-naphthyl)-N′-(2,3,4-trichlorophenyl)guanidine.HCl], the IC50 in data set [2] and in data set [1] (setting [7]) was 1700 nM in each case. Further, the “% Inhibition of ^3H-Glu Rel @ 3 μM” value in data set [5] is recorded as 88%.
For `CC(C)(C)c1ccc(NC(=N)Nc2ccc(C(C)(C)C)cc2)cc1` [Example 13, N,N′-Bis(4-tort-butylphenyl)guanidine], the IC50 worked out at 1500 nM in data set [2], 900 nM in data set [4] (setting [6]) and 4100 nM in data set [1] (setting [7]). In addition, in data set [5], the “% Inhibition of ^3H-Glu Rel @ 3 μM” value is listed as 70%. In addition, the “% Inhibition of ^3H-Glu Rel @ 1 μM (*veratridine-induced glutamate release assay)” value in data set [3] is given as 62* %.
The melting point is the temperature of the solid-liquid transition. Consider `CC(C)c1ccc(CN(C(=N)N)c2ccc3c4c(cccc24)CC3)cc1` [Example 19, N-(5-Acenaphthyl)-N-(4-isopropylbenzyl)guanidine], for which the melting point was in the range of 153 to 155 °C. Moreover, in data set [3] (3 μM compound, 50 μM veratridine-induced release, rat brain synaptosomes), the “% Inhibition of ^3H-Glu Rel @ 3 μM (*veratridine-induced glutamate release assay)” value is 81* %. In data set [1] (setting [7]), the half-inhibitory concentration (IC50) worked out at 2100 nM.
As to `CCC(C)c1ccc(NC(=N)Nc2ccc(C(C)CC)cc2)cc1` (stereo not drawn) (as salt: HCl) [Example 4, N,N′-bis(4-sec-Butylphenyl)guanidine.HCl], the melting point fell in the range of 113 to 115 °C.
On to `CCC(C)c1ccc(NC(=N)Nc2ccc(C(C)CC)cc2)cc1` (stereo not drawn) [Example 4, N,N′-bis(4-sec-Butylphenyl)guanidine.HCl], for which the values for the IC50 in data set [2], in data set [4] (setting [6]) and in data set [1] (setting [7]) were 11200 nM, 800 nM and 2100 nM, respectively. Also, the “% Inhibition of ^3H-Glu Rel @ 1 μM” value in data set [5] is 52%. Besides, the “% Inhibition of ^3H-Glu Rel @ 3 μM” value in data set [5] came to 85%.
Consider `CCC(C)c1ccc(N(Cc2ccccc2)C(=N)N)cc1` (stereo not drawn) [Example 17, N-(4-sec-Butylphenyl)-N-benzylguanidine], for which the melting point fell in the range of 65 to 67 °C.
On the same count and under the same terms, as for `CC(C)(C)c1ccc(CN(C(=N)N)c2cccc(I)c2)cc1` (as salt: HCl) [Example 48, N-(3-Iodophenyl)-N-(4-tert-butylbenzyl)guanidine.HCl], the figure is 271 to 272 °C.
Consider `CCC(C)c1ccc(N(C)C(=N)N(C)c2ccc(C(C)CC)cc2)cc1` (stereo not drawn) [Example 6], for which the concentration for half-maximal inhibition (IC50) turned out to be 5900 nM in data set [2], 600 nM in data set [4] and 4300 nM in data set [1] (setting [7]). Also, in data set [5], the “% Inhibition of ^3H-Glu Rel @ 1 μM” value came out at 71%. Further, the “% Inhibition of ^3H-Glu Rel @ 3 μM” value in data set [5] came to 92%.
As for `CC(C)(C)c1ccc(CN(C(=N)N)c2ccc3c4c(cccc24)CC3)cc1` [Example 2], the IC50 amounted to 8100 nM in data set [2], 1000 nM in data set [4] (setting [6]) and 2100 nM in data set [1] (setting [7]). Besides, in data set [5], the “% Inhibition of ^3H-Glu Rel @ 1 μM” value was 52%. In addition, in data set [5], the “% Inhibition of ^3H-Glu Rel @ 3 μM” value turned out to be 61%.
As to `N=C(Nc1ccc2c3c(cccc13)CC2)NC(c1ccccc1)c1ccccc1` (as salt: HCl) [Example 3, N-(5-Acenaphthyl)-N′-benzhydrylguanidine.HCl], the melting point lay in the range of 225 to 227 °C.
For `N=C(Nc1ccc2c3c(cccc13)CC2)NC(c1ccccc1)c1ccccc1` [Example 3, N-(5-Acenaphthyl)-N′-benzhydrylguanidine.HCl], in data set [5], the “% Inhibition of ^3H-Glu Rel @ 3 μM” value is listed as 53%. Besides, the half-maximal inhibitory concentration (IC50) in data set [1] (setting [7]) stood at 2700 nM.
With `CCC(C)c1ccc(N2CCCN(c3ccc(C(C)CC)cc3)C2=N)cc1` (stereo not drawn) (as salt: HBr) [Example 8, N,N′-Bis-(4-sec-butylphenyl)-2-iminopyrimidazolidine.HBr], the melting point was > 250 °C.
`CCC(C)c1ccc(N(Cc2ccc(C(C)(C)C)cc2)C(=N)N)cc1` (stereo not drawn) (as salt: HCl) [Example 1, N-(4-sec-Butylphenyl)-N-(4-tert-butylbenzyl)guanidine.HCl] displayed a melting point of 177 to 178 °C.
On the same count and under the same terms, as for `CC(C)(C)c1ccc(CN(C(=N)N)c2ccc(Cl)c3ccccc23)cc1` (as salt: HCl) [Example 49, N-(4-Chloro-1-naphthyl)-N-(4-tert-benzyl)guanidine.HCl], the figure is 115 to 117 °C.
